In paper PMC5587682 (Scientific Reports, 2017):
Residues, ends and D or L forms follow the SMILES beside them.

System: A/Parma/24/09 H1N1 oseltamivir-resistant virus
Type: cell-based, Influenza A virus
Conditions: turkey erythrocytes

Row | Molecule | HI titer [nM]
1 | CC(C)C[C@H](NC(=O)[C@H](CO)NC(=O)[C@H](CO)NC(=O)[C@H](Cc1c[nH]cn1)NC(=O)[C@H](CCCCN)NC(=O)[C@@H](N)CO)C(=O)N[C@@H](CC(=O)O)C(=O)N[C@@H](CS)C(=O)O [Peptide 16, SKHSSLDC] (H-SKHSSLDC-OH; N-terminus and C-terminus assumed) | 12
2 | CC(C)C[C@H](NC(=O)[C@@H](NC(=O)[C@H](CS)NC(=O)[C@H](CC(=O)O)NC(=O)[C@H](CC(C)C)NC(=O)[C@@H](N)CO)C(C)C)C(=O)N[C@@H](CCCNC(=N)N)C(=O)N1CCC[C@H]1C(N)=O [Peptide 13, SLDCVLRP] (H-SLDCVLRP-NH2) | 0.00015
3 | C[C@H](NC(=O)[C@H](Cc1c[nH]c2ccccc12)NC(=O)[C@H](CC(=O)O)NC(=O)[C@H](C)NC(=O)[C@@H](NC(=O)[C@H](CO)NC(=O)[C@H](CCC(=O)O)NC(=O)CNC(=O)[C@H](CC(N)=O)NC(=O)[C@@H](N)[C@@H](C)O)[C@@H](C)O)C(=O)N[C@@H](CCCCN)C(=O)N[C@@H](CC(N)=O)C(N)=O [Peptide 6, TNGESTADWAKN] (H-TNGESTADWAKN-NH2; N-terminus and C-terminus assumed) | 1.5
4 | C[C@@H](O)[C@H](NC(=O)[C@H](CCC(=O)O)NC(=O)[C@H](CO)NC(=O)[C@@H](N)CCCCN)C(=O)N[C@@H](CCCCN)C(=O)N[C@@H](CC(N)=O)C(=O)O [Peptide 8, KSETKN] (H-KSETKN-OH; N-terminus and C-terminus assumed) | 0.3
5 | NRKSSKHSSLDCVLRPTEGY [Peptide 10, bLf C-lobe fragment 414–433] | 6
6 | NRKSSKHSSLDCVLRP [Peptide 11, bLf C-lobe fragment 414–429] | 12
7 | SKHSSLDCVLRPTEGY [Peptide 12, bLf C-lobe fragment 418–433] | 0.1
